Molecular target: T1, proTNF-α convertase enzyme (TACE) (Homo sapiens, UniProt P78536)
T1 construct: a partially purified, isolated enzyme assay, the enzyme being obtained from the membranes of TBP-1; endogenous in cells
Test: Isolated enzyme assay, proTNF-α convertase (TACE), fluorogenic peptide substrate
Type: biochemical
Details: partially purified enzyme from membranes of TBP-1; 26° C. for 4 hours; read-out: concentration of compound that gave 50% inhibition of TACE
Method: Recombinant human proMMP13 may be expressed and purified as described by Knauper et al. [V. Knauper et al., (1996) The Biochemical Journal 271:1544-1550 (1996)]. The purified enzyme can be used to monitor inhibitors of activity as follows: purified proMMP13 is activated using lmM amino phenyl mercuric […] (APMA), 20 hours at 21° C.; the activated MMP13 (11.25 ng per assay) is incubated for 4-5 hours at 35° C. in assay buffer (0.1M Tris-HCl, pH 7.5 containing 0.1M NaCl, 20 mM CaCl2, 0.02 mM ZnCl and 0.05% (w/v) Brij 35 using the synthetic substrate 7-methoxycoumarin-4-yl)acetyl.Pro.Leu.Gly.Leu.N-3-(2,4-dinitrophenyl)-L2,3-diaminopropionyl.Ala.Arg.NH2 in the presence or absence of inhibitors. Activity is determined by measuring the fluorescence at λex 328 nm and λem 393 nm. Percent inhibition is calculated as follows: % Inhibition is equal to the […].
The ability of the compounds to inhibit proTNF-α convertase enzyme (TACE) may be assessed using a partially purified, isolated enzyme assay, the enzyme being obtained from the membranes of TBP-1 as described by K. M. Mohler et al., (1994) Nature 370:218-220. […] The amount of inhibition is determined as for MMP13 except λex 485 nm and λem 538 nm were used. […]

T1 sequence (P78536 215-824): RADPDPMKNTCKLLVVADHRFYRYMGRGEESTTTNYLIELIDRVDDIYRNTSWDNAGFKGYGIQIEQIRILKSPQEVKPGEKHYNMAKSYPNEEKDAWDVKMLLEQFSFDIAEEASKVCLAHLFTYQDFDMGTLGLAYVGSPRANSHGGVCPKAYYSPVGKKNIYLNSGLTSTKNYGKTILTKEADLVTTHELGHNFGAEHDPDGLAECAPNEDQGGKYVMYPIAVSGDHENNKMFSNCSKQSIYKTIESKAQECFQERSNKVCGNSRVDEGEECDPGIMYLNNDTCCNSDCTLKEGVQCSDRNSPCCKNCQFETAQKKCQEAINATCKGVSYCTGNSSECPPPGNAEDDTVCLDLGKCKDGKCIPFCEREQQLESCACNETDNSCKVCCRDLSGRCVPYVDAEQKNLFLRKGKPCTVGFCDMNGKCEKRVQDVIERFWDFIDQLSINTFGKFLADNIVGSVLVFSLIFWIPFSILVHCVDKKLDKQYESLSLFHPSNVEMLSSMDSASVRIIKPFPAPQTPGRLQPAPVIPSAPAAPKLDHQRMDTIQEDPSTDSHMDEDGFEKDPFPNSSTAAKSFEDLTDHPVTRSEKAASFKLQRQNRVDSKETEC

## Cc1cc(COc2ccc(C3(C)CCN(CC4(c5ccccc5)NC(=O)NC4=O)C3=O)cc2)c2ccccc2n1 (stereo not shown) [compound 6, 5-{3-Methyl-3-[4-(2-methylquinolin-4-ylmethoxy)phenyl]-2oxopyrrolidin-1-ylmethyl}-5-phenylimidazolidine-2,4-dione]
  IC50: 130 nM

— patent US20060063818A1, “Hydantoin derivatives and deren verwendung als tace inhibitoren” (priority 2002, published 2006)
